Test results taken from publication PMC12888861, “Antibacterial activity of enmetazobactam against Acinetobacter spp.: a molecular dissection of mechanism of action and resistance determinants” (Antimicrobial Agents and Chemotherapy, 2025).
Converted amounts (≈) assume the structure as drawn. Like-named read-outs stand apart in the source and are kept apart here.

What was measured:
[1] = test system: carbapenem-resistant CHDL-producing A. baumannii isolates (OXA-23, OXA-24/40, OXA-58); experiment: Checkerboard synergy assay (FIC index); type: cell-based, Acinetobacter baumannii; settings: Acinetobacter baumannii, alone or in presence of the partner
Procedure: Checkerboard assays were performed to assess synergistic interactions between the cefepime/enmetazobactam combination and sulbactam, as well as between enmetazobactam alone and either sulbactam or colistin. […] The assays were conducted with three multidrug-resistant A. baumannii isolates from the Spanish Multicenter Collection, each producing a different OXA-type carbapenemase: OXA-23, OXA-24/40, or OXA-58. The FIC index was calculated and interpreted as follows: FICindex ≤ 0.5, synergy; FICindex > 0.5–4, no synergy; and FICindex > 4, antagonism ([33], [34]).

OXA-23 [2] = molecular target: T1, OXA-23 (Acinetobacter baumannii, UniProt Q9L4P2); experiment: Jump-dilution dissociation assay (koff, t1/2) with OXA-23; type: biochemical; settings: jump dilution, accurate koff not determinable
T1 construct: GST (N); made in house; host or cells: Escherichia coli BL21
Procedure: (§1) The Michaelis-Menten constant (Km) was determined by fitting the data to the Michaelis-Menten equation, following established protocols ([38]). The kcat (hydrolysis rate constant of the β-lactamase) was obtained by linearization of the kinetic data ([39]). To assess the possible inhibitory capacity of enmetazobactam against the CHDLs of A. baumannii, specific OXA-23 inhibition kinetics assays were performed in a Nanoquant Infinite spectrophotometer (Tecan). […] Also, the dissociation constant (koff), which represents the rate at which the enzyme-inhibitor complex dissociates (i.e., the proportion of the enzyme-inhibitor complex that dissociates per unit of time), was determined through a jump-dilution assay that monitored OXA-23 activity recovery as the enzyme-inhibitor complex dissociated. OXA-23 (1 µM) was preincubated for 30 min at 37°C with excess of inhibitors (50× IC₅₀) to ensure full acyl-enzyme complex formation. Subsequently, the mixture was diluted 1:5,000 to allow gradual complex dissociation. […] Enzymatic activity, reflecting the progressive dissociation of the acyl-enzyme complex, was monitored spectrophotometrically at 490 nm for 8 h. The resulting progress curves were fitted using GraphPad Prism (GraphPad Software, MA, USA) to equation 1 to estimate koff, where V0 is the initial, inhibited enzyme velocity; Vs is the steady-state uninhibited enzyme velocity, and t is time.
(1) P=Vs×t+(V0−Vs)×[1−exp^(−koff × t)]/koff

OXA-23 [3] = molecular target: T1, OXA-23; experiment: OXA-23 inhibition assay (nitrocefin hydrolysis IC50); type: biochemical
Procedure: as §1

[4] = test system: Acinetobacter spp. clinical isolates; experiment: MBC testing, nine clinical isolates; type: cell-based; settings: for MBC relative to MIC: nine clinical isolates, most of the isolates
Procedure: In order to determine the bactericidal activity of enmetazobactam, MBC testing was carried out by subculturing 100 μL aliquots from wells containing antimicrobial concentrations equal to or greater than the MIC of enmetazobactam onto Mueller-Hinton agar plates. […] The MBCs were evaluated for a total of nine clinical isolates: (i) three CRAB, (ii) three carbapenem-susceptible A. baumannii, and (iii) three A. non-baumannii isolates. The plates were incubated at 37°C for 24 h, and viable colonies were counted.

PBP2 = molecular target: T2, PBP2 (Acinetobacter baumannii, UniProt D0C8Z9); experiment: PBP-binding assay, Bocillin FL competition, membrane preparations
T2 construct: endogenous in cells; host or cells: A. baumannii ATCC 19606 membrane fraction
Procedure: (§2) The possible involvement of A. baumannii PBPs as enmetazobactam targets was evaluated. […] The PBP-binding IC50 was determined in membrane preparations from three independent experiments, following previously described protocols ([13]).
(§3) Briefly, A. baumannii cultures were grown in Mueller-Hinton broth at 37°C with shaking at 180 rpm, and 400 mL were collected in late log phase (OD₆₀₀nm= 1), washed, and resuspended in 20 mM KH₂PO₄ and 140 mM NaCl (pH 7.5). After sonication, bacterial membranes were isolated by ultracentrifugation (150,000 g, 30 min). […] The Bocillin FL signal is inversely proportional to the binding capacity of the compounds tested to PBPs ([35]). The PBPs were separated by SDS-PAGE (Bio-Rad) and visualized with Odyssey M Imager (LI-COR). The IC₅₀ values were calculated using Empiria Studio software (LI-COR). The binding affinity was determined by comparing the change of the fluorescence in the presence or absence of the tested sulfones.

PBP3 = PBP3 (Acinetobacter baumannii, UniProt A0ABX6CK25); experiment: as above
Procedure: as §2, §3

PBP1a = PBP1a (Acinetobacter baumannii, UniProt A0ABX6CK30); experiment: as above; settings: A. baumannii ATCC 19606, read-out: IC50 (binding affinity) PBP1a
Procedure: as §2, §3

PBP1b = PBP1b (Acinetobacter baumannii, UniProt A0ABX6CHI7); experiment: as above; settings: A. baumannii ATCC 19606, read-out: IC50 (binding affinity) PBP1b (converted)
Procedure: as §2, §3

[5] = checkerboard sulbactam x enmetazobactam, isolate Ab4 (OXA-23)
[6] = checkerboard sulbactam x enmetazobactam, isolate Ab138 (OXA-58)
[7] = checkerboard sulbactam x enmetazobactam, isolate Ab180 (OXA-24/40)
[8] = Acinetobacter, isolate NO-Ab84, A. bereziniae
[9] = Acinetobacter, isolate NO-Ab88, A. dijkshoorniae
[10] = isolate Ab1, A. baumannii ST 164, ADC-6, OXA-91, non-CHDLs-producing
[11] = isolate Ab4, A. baumannii ST 2, ADC-30, OXA-66, ISAba1-OXA-23
[12] = isolate Ab6, A. baumannii ST 2, ADC-30, OXA-66, ISAba1-OXA-23, TEM-12
[13] = isolate Ab9, A. baumannii ST 2, ADC-30, OXA-66, OXA-23, TEM-12
[14] = isolate Ab11, A. baumannii ST 239, ADC-2, OXA-51, non-CHDLs-producing
[15] = isolate Ab34, A. baumannii ST 2182, ADC-2, OXA-130, non-CHDLs-producing
[16] = A. baumannii ATCC 19606, read-out: IC50 (binding affinity) PBP3 (converted)

T2 sequence (D0C8Z9 whole entry): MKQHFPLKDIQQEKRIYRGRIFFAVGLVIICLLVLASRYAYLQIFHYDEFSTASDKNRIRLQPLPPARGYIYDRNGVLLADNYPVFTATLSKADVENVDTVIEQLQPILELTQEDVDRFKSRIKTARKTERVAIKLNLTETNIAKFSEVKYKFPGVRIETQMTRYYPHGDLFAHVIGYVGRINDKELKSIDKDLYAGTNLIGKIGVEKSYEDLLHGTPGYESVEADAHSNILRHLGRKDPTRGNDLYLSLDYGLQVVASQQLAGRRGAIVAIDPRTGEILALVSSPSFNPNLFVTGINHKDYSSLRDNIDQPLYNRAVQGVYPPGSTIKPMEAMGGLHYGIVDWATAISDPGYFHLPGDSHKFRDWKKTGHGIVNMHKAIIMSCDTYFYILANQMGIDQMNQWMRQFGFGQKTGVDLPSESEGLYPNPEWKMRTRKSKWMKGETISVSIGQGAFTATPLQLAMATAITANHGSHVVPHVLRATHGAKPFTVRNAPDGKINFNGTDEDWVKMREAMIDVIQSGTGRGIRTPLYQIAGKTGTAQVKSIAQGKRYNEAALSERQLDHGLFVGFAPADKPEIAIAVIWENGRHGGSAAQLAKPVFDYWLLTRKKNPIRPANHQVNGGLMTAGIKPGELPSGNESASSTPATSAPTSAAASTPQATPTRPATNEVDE
PBP3, sequence (A0ABX6CK25 entry or part of it): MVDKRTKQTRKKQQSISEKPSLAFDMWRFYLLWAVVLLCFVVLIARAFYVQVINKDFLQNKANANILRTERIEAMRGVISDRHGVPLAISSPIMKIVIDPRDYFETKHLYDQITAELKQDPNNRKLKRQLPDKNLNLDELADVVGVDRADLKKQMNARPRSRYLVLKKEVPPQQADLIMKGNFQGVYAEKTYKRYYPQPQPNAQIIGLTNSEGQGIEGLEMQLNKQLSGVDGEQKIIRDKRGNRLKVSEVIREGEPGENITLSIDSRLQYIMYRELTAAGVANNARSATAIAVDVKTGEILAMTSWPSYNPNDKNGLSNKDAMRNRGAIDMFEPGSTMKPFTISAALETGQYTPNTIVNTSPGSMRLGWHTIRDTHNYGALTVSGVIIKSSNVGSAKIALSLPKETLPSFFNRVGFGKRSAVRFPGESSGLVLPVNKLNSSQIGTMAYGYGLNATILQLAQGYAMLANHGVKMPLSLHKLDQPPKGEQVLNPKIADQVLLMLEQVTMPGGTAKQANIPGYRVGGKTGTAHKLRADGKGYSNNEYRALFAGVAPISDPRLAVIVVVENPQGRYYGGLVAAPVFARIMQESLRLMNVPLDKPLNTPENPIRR
T1 sequence (Q9L4P2 18-273): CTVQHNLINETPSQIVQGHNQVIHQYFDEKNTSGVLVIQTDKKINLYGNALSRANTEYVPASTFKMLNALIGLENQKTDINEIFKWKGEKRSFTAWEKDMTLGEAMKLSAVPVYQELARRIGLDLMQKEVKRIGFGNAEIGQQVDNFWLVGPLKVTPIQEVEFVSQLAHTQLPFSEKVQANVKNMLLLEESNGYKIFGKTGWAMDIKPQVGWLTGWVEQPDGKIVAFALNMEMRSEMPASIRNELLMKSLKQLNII
PBP1a, sequence (A0ABX6CK30 entry or part of it): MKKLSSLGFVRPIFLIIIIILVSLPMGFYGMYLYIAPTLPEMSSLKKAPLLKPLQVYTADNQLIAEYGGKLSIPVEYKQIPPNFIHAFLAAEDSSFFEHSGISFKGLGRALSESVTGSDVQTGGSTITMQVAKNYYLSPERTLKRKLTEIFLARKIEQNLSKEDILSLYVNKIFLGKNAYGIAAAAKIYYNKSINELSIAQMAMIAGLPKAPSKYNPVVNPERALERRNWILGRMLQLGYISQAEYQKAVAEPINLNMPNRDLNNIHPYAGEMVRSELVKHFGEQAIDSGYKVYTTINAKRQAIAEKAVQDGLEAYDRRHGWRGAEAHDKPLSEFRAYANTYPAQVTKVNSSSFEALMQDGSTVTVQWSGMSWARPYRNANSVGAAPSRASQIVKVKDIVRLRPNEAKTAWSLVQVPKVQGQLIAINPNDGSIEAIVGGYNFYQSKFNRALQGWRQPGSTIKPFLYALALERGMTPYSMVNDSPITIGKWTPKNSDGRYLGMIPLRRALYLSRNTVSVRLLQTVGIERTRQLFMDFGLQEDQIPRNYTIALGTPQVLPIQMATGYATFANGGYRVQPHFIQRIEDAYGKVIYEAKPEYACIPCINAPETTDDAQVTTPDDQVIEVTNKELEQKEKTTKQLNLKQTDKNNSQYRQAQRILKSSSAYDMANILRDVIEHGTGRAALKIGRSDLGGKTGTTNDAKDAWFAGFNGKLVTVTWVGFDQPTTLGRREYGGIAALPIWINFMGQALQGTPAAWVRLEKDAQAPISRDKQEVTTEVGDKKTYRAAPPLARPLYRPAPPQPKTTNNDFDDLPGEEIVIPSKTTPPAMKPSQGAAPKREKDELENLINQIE

C[n+]1ccn(C[C@@]2(C)[C@H](C(=O)[O-])N3C(=O)C[C@H]3S2(=O)=O)n1 [enmetazobactam]
MIC ([1]; checkerboard colistin x enmetazobactam, isolate Ab4 (OXA-23)): 64 mg/L
MIC ([1]; checkerboard colistin x enmetazobactam, isolate Ab138 (OXA-58)): 32 mg/L
MIC ([1]; checkerboard colistin x enmetazobactam, isolate Ab180 (OXA-24/40)): 16 mg/L
MIC [1, 5]: 128 mg/L
MIC [1, 6]: 32 mg/L
MIC [1, 7]: 16 mg/L
koff relative to that of durlobactam (OXA-23 [2]): > 1,000 fold
IC50 (OXA-23 [3]; OXA-23, nitrocefin hydrolysis, 10 min preincubation at room temperature, read-out: IC50): 32.4 µM
MBC [4, 8]: 2 mg/L (≈ 6.36 µM)
MBC [4, 9]: 2 mg/L (≈ 6.36 µM)
MBC [4, 10]: 4 mg/L (≈ 12.7 µM)
MBC [4, 11]: 64 mg/L (≈ 204 µM)
MBC [4, 12]: 64 mg/L (≈ 204 µM)
MBC [4, 13]: 8 mg/L (≈ 25.5 µM)
MBC [4, 14]: 16 mg/L (≈ 50.9 µM)
MBC [4, 15]: 8 mg/L (≈ 25.5 µM)
MBC ([4]; isolate NO-Ab89, A. pittii): 2 mg/L (≈ 6.36 µM)
MBC relative to MIC [4]: the same or up to twofold higher
IC50 (PBP2; membrane preparations, A. baumannii ATCC 19606, read-out: IC50 (binding affinity) PBP2 (converted)): 11.5 µM
IC50 (PBP3; A. baumannii ATCC 19606, listed as Enmetazobactam, read-out: IC50 (binding affinity) PBP3 (converted)): 13.4 µM
IC50 (PBP3; [16]): 13.5 µM
IC50 (PBP1a): > 204 µM
IC50 (PBP1b): > 204 µM

CC1(C)[C@H](C(=O)O)N2C(=O)C[C@H]2S1(=O)=O [sulbactam]
MIC [1, 5]: 16 mg/L
MIC [1, 6]: 8 mg/L
MIC [1, 7]: 2 mg/L
IC50 (OXA-23 [3]): 29.2 µM
MBC [4, 8]: 1 mg/L (≈ 4.29 µM)
MBC [4, 9]: 0.5 mg/L (≈ 2.14 µM)
MBC [4, 10]: 1 mg/L (≈ 4.29 µM)
MBC [4, 11]: 16 mg/L (≈ 68.6 µM)
MBC [4, 12]: 16 mg/L (≈ 68.6 µM)
MBC [4, 13]: 4 mg/L (≈ 17.1 µM)
MBC [4, 14]: 2 mg/L (≈ 8.57 µM)
MBC [4, 15]: 0.5 mg/L (≈ 2.14 µM)
MBC ([4]; isolate NO-Ab89, A. pittii): 0.5 mg/L (≈ 2.14 µM)
MBC relative to MIC [4]: the same or up to twofold higher
IC50 (PBP2; IC50 (binding affinity) PBP2, membrane preparations, A. baumannii ATCC 19606): > 274 µM
IC50 (PBP3; [16]): 9.73 µM
IC50 (PBP1a): > 274 µM
IC50 (PBP1b): 9.6 µM
